Laboratory results taken from patent US20150175655A1 (priority 2012, published 2015).
Read-outs that look alike come from different tables or passages of the source.

Assays:
[1] = tested on: genotype 1a stable HCV replicon (H77 strain) in Huh-7-derived cells; assay: Stable subgenomic HCV replicon EC50, genotype 1a (Renilla luciferase); type: cell-based; details: Hepatitis C virus, stable replicon genotype 1a, 72 h, read-out: EC50 1A RLUC
Experimental: (§1) Antiviral potency (EC50) was determined in both stable subgenomic HCV replicon cell lines and transient-transfected HCV replicon cells. The term half maximal effective concentration (EC50) refers to the concentration of a drug which induces a response halfway between the baseline and maximum after the exposure time specified below.
(§2) Stable subgenomic HCV replicons for genotype 1a, 1 b, 2a, 3a, and 4a were established in Huh-7-derived cells as described by Lohmann et al (Lohmann V, Korner F, Koch J, et al Replication of subgenomic hepatitis C virus RNAs in a hepatoma cell line. Science 1999; 285:119-3). Each stable cell line contains a bicistronic HCV replicon that encodes a humanized Renilla luciferase (hRLuc) reporter gene fused to a selectable neomycin-resistance gene, followed by an EMCV IRES and the NS3-NS5B coding region of HCV. […] Luciferase activity was measured as a marker for intracellular HCV replication levels.
(§3) The genotype 1a stable replicon was derived from the H77 HCV strain and contained adaptive mutations P1496L and S2204I. The genotype 1 b stable replicon was derived from the Cont HCV strain and contained adaptive mutations E1202G, T1280I, and K1846T. […] The genotype 3a stable replicon was derived from the S52 HCV strain and contained adaptive mutations P1121 L, A1198T and S2210I (equivalent to S2204I in genotype 1). The genotype 4a stable replicon was derived from the ED43 HCV strain and contained adaptive mutations Q1691R and S2204I. All replicon cell lines were propagated in Huh-7-derived cells and maintained in Dulbecco's modified Eagle's Medium (DMEM) supplemented with 10% fetal bovine serum (FBS) and 0.5 mg/mL G418.
(§4) To perform EC50 assays, cells from each HCV replicon were dispensed into 384-well plates. Compounds were dissolved in DMSO at a concentration of 10 mM and diluted in DMSO using an automated pipetting instrument. Three-fold serially diluted compounds were directly added to the cells using an automated instrument. […] Seventy-two hours later, cells were lysed and Renilla luciferase activity were quantified as recommended by the manufacturer (Promega-Madison, Wis.). Non-linear regression was performed to calculate EC50 values.

[2] = tested on: genotype 1b stable HCV replicon in Huh-7-derived cells; assay: Stable subgenomic HCV replicon EC50, genotype 1b (Renilla luciferase); type: cell-based; details: Hepatitis C virus, stable replicon genotype 1b, 72 h, read-out: EC50 1B RLUC
Experimental: as §1, §2, §3, §4

[3] = tested on: genotype 2a stable HCV replicon (JFH-1 strain) in Huh-7-derived cells; assay: Stable subgenomic HCV replicon EC50, genotype 2a (Renilla luciferase); type: cell-based; details: Hepatitis C virus, stable replicon genotype 2a, 72 h, read-out: EC50 2A RLUC
Experimental: as §1, §2, §3, §4

[4] = tested on: genotype 3a stable HCV replicon (S52 strain) in Huh-7-derived cells; assay: Stable subgenomic HCV replicon EC50, genotype 3a (Renilla luciferase); type: cell-based; details: Hepatitis C virus, 72 h, read-out: EC50 3A RLUC
Experimental: as §1, §2, §3, §4

[5] = tested on: genotype 4a stable HCV replicon (ED43 strain) in Huh-7-derived cells; assay: Stable subgenomic HCV replicon EC50, genotype 4a (Renilla luciferase); type: cell-based; details: Hepatitis C virus, 72 h, read-out: EC50 4A RLUC
Experimental: as §1, §2, §3, §4

[6] = tested on: genotype 1a (H77) wild-type transient HCV replicon in Huh-7-derived cells; assay: Transient-transfected HCV replicon EC50, genotype 1a wild type; type: cell-based; details: Hepatitis C virus; transient-transfected replicon genotype 1a wild type, 72 h; read-out: EC50 1A WT
[7] = tested on: genotype 1a transient HCV replicon, NS3/4a protease inhibitor resistant variant R155K, in Huh-7-derived cells; assay: Transient-transfected HCV replicon EC50, genotype 1a R155K; type: cell-based; details: Hepatitis C virus, 72 h, read-out: EC50 1A R155K
[8] = tested on: genotype 1b (Con1) wild-type transient HCV replicon in Huh-7-derived cells; assay: Transient-transfected HCV replicon EC50, genotype 1b wild type; type: cell-based; details: Hepatitis C virus; transient-transfected replicon genotype 1b wild type, 72 h; read-out: EC50 1B WT
[9] = tested on: genotype 1b transient HCV replicon, NS3/4a protease inhibitor resistant variant D168A, in Huh-7-derived cells; assay: Transient-transfected HCV replicon EC50, genotype 1b D168A; type: cell-based; details: Hepatitis C virus, 72 h, read-out: EC50 1B D168A
NS3 genotype 1b protease = target: T1, NS3 genotype 1b protease (Hepatitis C virus genotype 1b, UniProt Q9WMX2, E1202G); assay: Ki determination, NS3 protease genotype 1b (fluorogenic depsipeptide substrate); type: biochemical
T1 construct: Purified NS3 protease domain (amino acids 1-181) of the genotype 1b and 3a virus were generated as above; K3 hexahistidine tag (N); rTEV protease cleavage site (N); made in house; host or cells: E. coli BL21AI, pET28 vector p28-N6H-Tev-NS3(181)1b
In short: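 The His-tagged HCV NS3 protease domain (residues 1-181, genotype 1b con-1) was expressed in E. coli, and 50 pM enzyme with 20 μM NS4A peptide was used. Inhibitor (100 nM to 5 pM, 3-fold steps) was pre-incubated 1 h at room temperature in 50 mM HEPES, 40% glycerol, 0.05% Triton X-100, 10 mM DTT, 10% DMSO. The reaction was started with 4 μM fluorogenic substrate, and fluorescence (ex 340/em 490 nm) was read every 30 s between 90 and 120 min. Ki^app came from fitting rates with the Morrison equation.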

[10] = tested on: genotype 3a transient HCV replicon (S52 strain) in Huh-7-derived cells; assay: Transient-transfected HCV replicon EC50, genotype 3a wild type; type: cell-based; details: Hepatitis C virus; transient-transfected replicon genotype 3a wild type, 72 h; read-out: EC50 3A WT
[11] = rcm bond, Zhan 1B, DCE

SMILES | EC50 [1] [nM] | EC50 [2] [nM] | EC50 [3] [nM] | EC50 [4] [nM] | EC50 [5] [nM] | EC50 [6] [nM] | EC50 [7] [nM] | EC50 [8] [nM] | EC50 [9] [nM] | Ki (NS3 genotype 1b protease) [nM] | EC50 [10] [nM] | ring closure, yield of all isomers ([11]; from C=CCCCC1C(OC(=O)N[C@H](C(=O)N2C[C@H](Oc3nc4cc(OC)ccc4nc3C=C)[C@@H](C)[C@H]2C(=O)OC(C)(C)C)C(C)(C)C)CC2CC21, 2.91 mM, 85.0 °C, 1.75 h) [%] | ring closure, yield of all isomers ([11]; from C=CCCC[C@@H]1C[C@H]1OC(=O)N[C@H](C(=O)N1C[C@H](Oc2nc3cc(OC)ccc3nc2C=C)[C@@H](C2CC2)[C@H]1C(=O)OC)C(C)(C)C, 4.96 mM, 83.0 °C, 0.83 h) [%]
CC[C@@H]1[C@@H]2CN(C(=O)[C@H](C(C)(C)C)NC(=O)O[C@]3(C(F)(F)F)CCC[C@H]3CCCCCc3nc4ccc(OC)cc4nc3O2)[C@@H]1C(=O)N[C@]1(C(=O)NS(=O)(=O)C2CC2)C[C@H]1C(F)F [Example 11, (7S,10S,11S,12R)-7-tert-butyl-N-[(1R,2R)-1-[(cyclopropylsulfonyl)carbamoyl]-2-(difluoromethyl)cyclopropyl]-11-ethyl-16-methoxy-5,8-dioxo-3aR-(trifluoromethyl)-1,2,3,3a,5,6,7,8,11,12,20,21,22,23,24,24a-hexadecahydro-10H-9,12-methanocyclopenta[18,19][1,10,3,6]dioxadiazacyclononadecino[11,12-b]quinoxaline-10-carboxamide] | 28 | 17 | 34 | 1160 | 19 | 20 | 159 | 9.4 | 605 |  |  |  | 
COc1ccc2nc3c(nc2c1)O[C@H]1CN(C(=O)[C@H](C(C)(C)C)NC(=O)O[C@@H]2C[C@H]2CCCCC3)[C@H](C(=O)N[C@]2(C(=O)NS(=O)(=O)C3(C)CC3)C[C@H]2C(F)F)[C@@H]1C1CC1 [Example 31, (1aR,5S,8S,9S,10R,22aR)-5-tert-butyl-9-cyclopropyl-N-[(1R,2R)-2-(difluoromethyl)-1-{[(1-methylcyclopropyl)sulfonyl]carbamoyl}cyclopropyl]-14-methoxy-3,6-dioxo-1,1a,3,4,5,6,9,10,18,19,20,21,22,22a-tetradecahydro-8H-7,10-methanocyclopropa[18,19][1,10,3,6]dioxadiazacyclononadecino[11,12-b]quinoxaline-8-carboxamide] | 40 | 18 | 63 | 2070 | 20 | 27 | 154 | 6.6 | 805 | 0.13 |  |  | 
COc1ccc2nc3c(nc2c1)O[C@H]1CN(C(=O)[C@H](C(C)(C)C)NC(=O)O[C@@H]2CCN(C(C)=O)C2CCCCC3)[C@H](C(=O)N[C@]2(C(=O)NS(=O)(=O)C3(C)CC3)C[C@H]2C(F)F)[C@@H]1C (stereo partly drawn) [Example 80, (3aR,7S,10S,11S,12R)-1-acetyl-7-tert-butyl-N-[(1R,2R)-2-(difluoromethyl)-1-{[(1-methylcyclopropyl)sulfonyl]carbamoyl}cyclopropyl]-16-methoxy-11-methyl-5,8-dioxo-1,2,3,3a,5,6,7,8,11,12,20,21,22,23,24,24a-hexadecahydro-10H-9,12-methanopyrrolo[2′,3′:18,19][1,10,3,6]dioxadiazacyclononadecino[11,12-b]quinoxaline-10-carboxamide] |  |  |  | ≥ 44400 |  |  |  |  |  |  |  |  | 
CC[C@@H]1[C@@H]2CN(C(=O)[C@H](C(C)(C)C)NC(=O)O[C@@H]3C[C@H]3CC/C=C/C(F)(F)c3nc4ccc(OC)cc4nc3O2)[C@@H]1C(=O)N[C@]1(C(=O)NS(=O)(=O)C2(C)CC2)C[C@H]1C(F)F [Example 89, (1aR,5S,8S,9S,10R,19E,22aR)-5-tert-butyl-N-[(1R,2R)-2-(difluoromethyl)-1-{[(1-methylcyclopropyl)sulfonyl]carbamoyl}cyclopropyl]-9-ethyl-18,18-difluoro-14-methoxy-3,6-dioxo-1,1a,3,4,5,6,9,10,18,21,22,22a-dodecahydro-8H-7,10-methanocyclopropa[18,19][1,10,3,6]dioxadiazacyclononadecino[11,12-b]quinoxaline-8-carboxamide] | 6 | 6.1 | 4.3 | 19 | 4.6 | 6 | 3.7 | 3.2 | 5.1 |  | 5.5 |  | 
C=C[C@@H]1C[C@]1(NC(=O)[C@@H]1[C@H](CC)[C@@H]2CN1C(=O)[C@H](C(C)(C)C)NC(=O)O[C@@H]1C[C@H]1CCCCC(F)(F)c1nc3ccc(OC)cc3nc1O2)C(=O)NS(=O)(=O)C1CC1 [Example 92, (1aR,5S,8S,9S,10R,22aR)-5-tert-butyl-N-{(1R,2S)-1-[(cyclopropylsulfonyl)carbamoyl]-2-ethenylcyclopropyl}-9-ethyl-18,18-difluoro-14-methoxy-3,6-dioxo-1,1a,3,4,5,6,9,10,18,19,20,21,22,22a-tetradecahydro-8H-7,10-methanocyclopropa[18,19][1,10,3,6]dioxadiazacyclononadecino[11,12-b]quinoxaline-8-carboxamide] | 3.3 | 3.2 | 4.6 |  |  | 3 | 3 | 1.7 |  |  | 8 |  | 
CC[C@@H]1[C@@H]2CN(C(=O)[C@H](C(C)(C)C)NC(=O)O[C@@]3(C(F)(F)F)CCC[C@H]3CCCCCc3nc4ccc(OC)cc4nc3O2)[C@@H]1C(=O)N[C@]1(C(=O)NS(=O)(=O)C2CC2)C[C@H]1C(F)F [Example 12, (7S,10S,11S,12R)-7-tert-butyl-N-[(1R,2R)-1-[(cyclopropylsulfonyl)carbamoyl]-2-(difluoromethyl)cyclopropyl]-11-ethyl-16-methoxy-5,8-dioxo-3a5-(trifluoromethyl)-1,2,3,3a,5,6,7,8,11,12,20,21,22,23,24,24a-hexadecahydro-10H-9,12-methanocyclopenta[18,19][1,10,3,6]dioxadiazacyclononadecino[11,12-b]quinoxaline-10-carboxamide] | 34 | 18 | 25 | 2010 | 21 | 14 | 283 | 5.7 | 640 |  |  |  | 
COc1ccc2nc3c(nc2c1)O[C@H]1CN(C(=O)[C@H](C(C)(C)C)NC(=O)O[C@@H]2C[C@@H]4C[C@@H]4[C@H]2CCCC=C3)[C@H](C(=O)OC(C)(C)C)[C@@H]1C |  |  |  |  |  |  |  |  |  |  |  | 33.1 | 
COC(=O)[C@@H]1[C@H](C2CC2)[C@@H]2CN1C(=O)[C@H](C(C)(C)C)NC(=O)O[C@@H]1C[C@H]1CCCC=Cc1nc3ccc(OC)cc3nc1O2 |  |  |  |  |  |  |  |  |  |  |  |  | 39
